Experimental data taken from patent US20040192782A1, “Erucamide compounds for the treatment and prevention to disturbances of the secretory system” (priority 2001, published 2004).

Assays:
[1] = test system: cholera toxin induced diarrhea in the jejunum of the rat; details: in vivo
[2] = test system: CSF production; details: in vivo; cited from earlier work
[3] = test system: transport of Na+ from plasma to CSF; assay: CSF production measured as 22Na+ transport from plasma to CSF after intraventricular administration; format: in vivo, rat; details: 5 μl/min, 300 g rats under halothan, 22Na+ i.v. 30 min after erucamide
Text: Effect of erucamide and analogues thereof on CSF production Production of CSF depends mainly on active transport of Na^+ from the blood to the brain ventricles (Davson and Segal, 1970). Water then follows the net transport of Na^+ and other ions to maintain osmotic balance. Therefore, formation of CSF is directly proportional to Na^+ transport into the ventricular cavities. A simple technique to measure CSF production is to determine the turnover of plasma Na^+ into CSF. The method involves maintenance of a steady state level of ^22Na^+ in plasma and sampling ^22Na^+ in the CSF at various times after injection of the isotope (Knuckey et al., 1991). […] A 2-3 mm long micro-dialysis tubing, connecting 2 polyethylene tubings, was permanently placed in the cisterna magna for sampling of CSF. […] Blood samples were taken from the tail veins at 15, 30, 90 and 180 min. Blood and CSF samples were analyzed for radioactivity. Intraventricularly administered erucamide reduced by over 40% the transport of Na^+ from plasma to CSF.

CCCCC/C=C\C/C=C\C/C=C\C/C=C\CCCC(=O)O [Arachidonic acid, reference compound]
Antisecretory activity relative to erucamide activity [1]: less than 20 % of the erucamide activity

CCCCCCCC/C=C\CCCCCCCCCCCC(=O)O [Erucic acid, cis-13-docosenoic acid, reference compound]
Antisecretory activity in the rat intestine model (in words) [1]: does not display any antisecretory activity

CC(=O)Nc1nnc(S(N)(=O)=O)s1 [aztzoiamide]
Inhibition of CSF production [2]: 50%

CCCCCCCC/C=C\CCCCCCCCCCCC(N)=O [erucamide, cis-13-docosenoamide]
Dose giving maximal antisecretory activity, expressed as concentration [1]: 0.3 pM
Dose giving maximal antisecretory activity ([1]; iv): 1×10^−10 g/kg/dose
Maximal antisecretory activity (inhibition of cholera toxin induced diarrhea) ([1]; iv): 75 % inhibition
Reduction of transport of Na+ from plasma to CSF [3]: over 40%
